# Assay results published in patent publication US4228292A, “N-Substituted benzothiazolines and benzoxazolines and their use as herbicides and plant growth regulants” (Monsanto Company, priority 1978, dated 1980).
# How the values were obtained:
# Format in all cases: in vivo
# Panicum Spp [1] = assay: pre-emergent herbicidal test; details: S, 4 WAT
# Method: (§1) The pre-emergent test was conducted as follows:
# (§2) A good grade of top soil was placed in aluminum pans and compactd to a depth of 0.95 to 1.27 cm. from the top of the pan. On the top of the soil was placed a predetermined number of seeds or vegetative propagules of various plant species. The soil required to level fill the pans after seeding or adding vegetative propagules was weighed into a pan. A known amount of the herbicidal active ingredient applied in a solvent or as a wettable powder and the soil were thoroughly mixed, and used as a cover layer for prepared pans. After treatment the pans were moved into a greenhouse bench where they were watered from below as needed to give adequate moisture for germination and growth.
# (§3) A herbicidal rating code was used to signify the extent of phytotoxicity of each species. The ratings are defined as follows: […]
# Hemp Sesbania [2] = assay: pre-emergent herbicidal test; details: R, 4 WAT
# Method: as §1, §2, §3
# Sorghum [3] = assay: pre-emergent herbicidal test; details: P, 4 WAT
# Method: as §1, §2, §3
# Crabgrass [4] = assay: pre-emergent herbicidal test; details: T, 4 WAT
# Method: as §1, §2, §3
# Wheat [5] = assay: pre-emergent herbicidal test; details: N, 4 WAT
# Method: as §1, §2, §3
# Wild Buckwheat [6] = assay: pre-emergent herbicidal test; details: Q, 4 WAT
# Method: as §1, §2, §3
# Sugar Beet [7] = assay: pre-emergent herbicidal test; details: M, 4 WAT
# Method: as §1, §2, §3
# Rice [8] = assay: pre-emergent herbicidal test; details: O, 4 WAT
# Method: as §1, §2, §3
# Soybean [9] = assay: pre-emergent herbicidal test; details: L, 4 WAT
# Method: as §1, §2, §3
# Panicum Spp [10] = assay: post-emergent herbicidal test; details: S, 4 WAT
# Method: (§4) The post-emergent tests were conducted as follows:
# (§5) The herbicidal active ingredients are applied in spray form to two or three-week old specimens of various plant species. The spray, a solution or wettable powder suspension containing the appropriate rate of herbicidal active ingredient to give the desired test rate and a surfactant, is applied to the plants. The treated plants are placed in a greenhouse and approximately two or four weeks later the effects are observed and recorded. The results are shown in Tables IX and X in which the post-emergent herbicidal rating code is as follows: […]
# Hemp Sesbania [11] = assay: post-emergent herbicidal test; details: R, 4 WAT
# Method: as §4, §5
# Sorghum [12] = assay: post-emergent herbicidal test; details: P, 4 WAT
# Method: as §4, §5
# Crabgrass [13] = assay: post-emergent herbicidal test; details: T, 4 WAT
# Method: as §4, §5
# Wheat [14] = assay: post-emergent herbicidal test; details: N, 4 WAT
# Method: as §4, §5
# Wild Buckwheat [15] = assay: post-emergent herbicidal test; details: Q, 4 WAT
# Method: as §4, §5
# Sugar Beet [16] = assay: post-emergent herbicidal test; details: M, 4 WAT
# Method: as §4, §5
# Rice [17] = assay: post-emergent herbicidal test; details: O, 4 WAT
# Method: as §4, §5
# Soybean [18] = assay: post-emergent herbicidal test; details: L, 4 WAT
# Method: as §4, §5
# Also: ranges in brackets are in %.
smiles,measurement,setting,value
COC(=N)Cn1c(=O)sc2ccccc21 [Compound 11],pre-emergent herbicidal rating,Panicum Spp [1]; 1.12 kg/h,0 (0-24)
same,pre-emergent herbicidal rating,Panicum Spp [1]; 5.6 kg/h,2 (50-74)
same,pre-emergent herbicidal rating,Hemp Sesbania [2]; 1.12 kg/h,1 (25-49)
same,pre-emergent herbicidal rating,Hemp Sesbania [2]; 5.6 kg/h,3 (75-100)
same,pre-emergent herbicidal rating,Sorghum [3]; 1.12 kg/h,0 (0-24)
same,pre-emergent herbicidal rating,Sorghum [3]; 5.6 kg/h,0 (0-24)
same,pre-emergent herbicidal rating,Crabgrass [4]; 1.12 kg/h,0 (0-24)
same,pre-emergent herbicidal rating,Crabgrass [4]; 5.6 kg/h,1 (25-49)
same,pre-emergent herbicidal rating,Wheat [5]; 1.12 kg/h,1 (25-49)
same,pre-emergent herbicidal rating,Wheat [5]; 5.6 kg/h,1 (25-49)
same,pre-emergent herbicidal rating,Wild Buckwheat [6]; 1.12 kg/h,1 (25-49)
same,pre-emergent herbicidal rating,Wild Buckwheat [6]; 5.6 kg/h,3 (75-100)
same,pre-emergent herbicidal rating,Sugar Beet [7]; 1.12 kg/h,1 (25-49)
same,pre-emergent herbicidal rating,Sugar Beet [7]; 5.6 kg/h,2 (50-74)
same,pre-emergent herbicidal rating,Rice [8]; 1.12 kg/h,0 (0-24)
same,pre-emergent herbicidal rating,Rice [8]; 5.6 kg/h,0 (0-24)
same,pre-emergent herbicidal rating,Soybean [9]; 1.12 kg/h,2 (50-74)
same,pre-emergent herbicidal rating,Soybean [9]; 5.6 kg/h,3 (75-100)
same,post-emergent herbicidal rating,Panicum Spp [10]; 1.12 kg/h,0 (0-24)
same,post-emergent herbicidal rating,Panicum Spp [10]; 5.6 kg/h,1 (25-49)
same,post-emergent herbicidal rating,Hemp Sesbania [11]; 1.12 kg/h,1 (25-49)
same,post-emergent herbicidal rating,Hemp Sesbania [11]; 5.6 kg/h,3 (75-99)
same,post-emergent herbicidal rating,Sorghum [12]; 1.12 kg/h,0 (0-24)
same,post-emergent herbicidal rating,Sorghum [12]; 5.6 kg/h,1 (25-49)
same,post-emergent herbicidal rating,Crabgrass [13]; 1.12 kg/h,0 (0-24)
same,post-emergent herbicidal rating,Crabgrass [13]; 5.6 kg/h,0 (0-24)
same,post-emergent herbicidal rating,Wheat [14]; 1.12 kg/h,1 (25-49)
same,post-emergent herbicidal rating,Wheat [14]; 5.6 kg/h,1 (25-49)
same,post-emergent herbicidal rating,Wild Buckwheat [15]; 1.12 kg/h,2 (50-74)
same,post-emergent herbicidal rating,Wild Buckwheat [15]; 5.6 kg/h,4 (100)
same,post-emergent herbicidal rating,Sugar Beet [16]; 1.12 kg/h,2 (50-74)
same,post-emergent herbicidal rating,Sugar Beet [16]; 5.6 kg/h,4 (100)
same,post-emergent herbicidal rating,Rice [17]; 1.12 kg/h,0 (0-24)
same,post-emergent herbicidal rating,Rice [17]; 5.6 kg/h,0 (0-24)
same,post-emergent herbicidal rating,Soybean [18]; 1.12 kg/h,1 (25-49)
same,post-emergent herbicidal rating,Soybean [18]; 5.6 kg/h,3 (75-99)
CCOC(=N)Cn1c(=O)sc2ccccc21 [Compound 12],pre-emergent herbicidal rating,Panicum Spp [1]; 1.12 kg/h,0 (0-24)
same,pre-emergent herbicidal rating,Panicum Spp [1]; 5.6 kg/h,0 (0-24)
same,pre-emergent herbicidal rating,Hemp Sesbania [2]; 1.12 kg/h,1 (25-49)
same,pre-emergent herbicidal rating,Hemp Sesbania [2]; 5.6 kg/h,2 (50-74)
same,pre-emergent herbicidal rating,Sorghum [3]; 1.12 kg/h,0 (0-24)
same,pre-emergent herbicidal rating,Sorghum [3]; 5.6 kg/h,0 (0-24)
same,pre-emergent herbicidal rating,Crabgrass [4]; 1.12 kg/h,0 (0-24)
same,pre-emergent herbicidal rating,Crabgrass [4]; 5.6 kg/h,0 (0-24)
same,pre-emergent herbicidal rating,Wheat [5]; 1.12 kg/h,0 (0-24)
same,pre-emergent herbicidal rating,Wheat [5]; 5.6 kg/h,1 (25-49)
same,pre-emergent herbicidal rating,Wild Buckwheat [6]; 1.12 kg/h,1 (25-49)
same,pre-emergent herbicidal rating,Wild Buckwheat [6]; 5.6 kg/h,1 (25-49)
same,pre-emergent herbicidal rating,Sugar Beet [7]; 1.12 kg/h,3 (75-100)
same,pre-emergent herbicidal rating,Sugar Beet [7]; 5.6 kg/h,3 (75-100)
same,pre-emergent herbicidal rating,Rice [8]; 1.12 kg/h,0 (0-24)
same,pre-emergent herbicidal rating,Rice [8]; 5.6 kg/h,0 (0-24)
same,pre-emergent herbicidal rating,Soybean [9]; 1.12 kg/h,1 (25-49)
same,pre-emergent herbicidal rating,Soybean [9]; 5.6 kg/h,2 (50-74)
same,post-emergent herbicidal rating,Panicum Spp [10]; 0.28 kg/h,0 (0-24)
same,post-emergent herbicidal rating,Panicum Spp [10]; 1.12 kg/h,0 (0-24)
same,post-emergent herbicidal rating,Panicum Spp [10]; 5.6 kg/h,0 (0-24)
same,post-emergent herbicidal rating,Hemp Sesbania [11]; 0.28 kg/h,1 (25-49)
same,post-emergent herbicidal rating,Hemp Sesbania [11]; 1.12 kg/h,2 (50-74)
same,post-emergent herbicidal rating,Hemp Sesbania [11]; 5.6 kg/h,3 (75-99)
same,post-emergent herbicidal rating,Sorghum [12]; 0.28 kg/h,0 (0-24)
same,post-emergent herbicidal rating,Sorghum [12]; 1.12 kg/h,0 (0-24)
same,post-emergent herbicidal rating,Sorghum [12]; 5.6 kg/h,0 (0-24)
same,post-emergent herbicidal rating,Crabgrass [13]; 0.28 kg/h,0 (0-24)
same,post-emergent herbicidal rating,Crabgrass [13]; 1.12 kg/h,0 (0-24)
same,post-emergent herbicidal rating,Crabgrass [13]; 5.6 kg/h,0 (0-24)
same,post-emergent herbicidal rating,Wheat [14]; 0.28 kg/h,0 (0-24)
same,post-emergent herbicidal rating,Wheat [14]; 1.12 kg/h,0 (0-24)
same,post-emergent herbicidal rating,Wheat [14]; 5.6 kg/h,1 (25-49)
same,post-emergent herbicidal rating,Wild Buckwheat [15]; 0.28 kg/h,1 (25-49)
same,post-emergent herbicidal rating,Wild Buckwheat [15]; 1.12 kg/h,2 (50-74)
same,post-emergent herbicidal rating,Wild Buckwheat [15]; 5.6 kg/h,3 (75-99)
same,post-emergent herbicidal rating,Sugar Beet [16]; 0.28 kg/h,1 (25-49)
same,post-emergent herbicidal rating,Sugar Beet [16]; 1.12 kg/h,2 (50-74)
same,post-emergent herbicidal rating,Sugar Beet [16]; 5.6 kg/h,3 (75-99)
same,post-emergent herbicidal rating,Rice [17]; 0.28 kg/h,0 (0-24)
same,post-emergent herbicidal rating,Rice [17]; 1.12 kg/h,0 (0-24)
same,post-emergent herbicidal rating,Rice [17]; 5.6 kg/h,0 (0-24)
same,post-emergent herbicidal rating,Soybean [18]; 0.28 kg/h,1 (25-49)
same,post-emergent herbicidal rating,Soybean [18]; 1.12 kg/h,1 (25-49)
same,post-emergent herbicidal rating,Soybean [18]; 5.6 kg/h,2 (50-74)
